How the values were obtained:
[1] = system: Radical scavenging activity
Description: Antioxidant activity assessed as DPPH radical scavenging activity by spectrophotometry

[2] = target: T1, Tyrosinase (Agaricus bisporus, UniProt O42713)
T1 sequence (O42713 whole entry): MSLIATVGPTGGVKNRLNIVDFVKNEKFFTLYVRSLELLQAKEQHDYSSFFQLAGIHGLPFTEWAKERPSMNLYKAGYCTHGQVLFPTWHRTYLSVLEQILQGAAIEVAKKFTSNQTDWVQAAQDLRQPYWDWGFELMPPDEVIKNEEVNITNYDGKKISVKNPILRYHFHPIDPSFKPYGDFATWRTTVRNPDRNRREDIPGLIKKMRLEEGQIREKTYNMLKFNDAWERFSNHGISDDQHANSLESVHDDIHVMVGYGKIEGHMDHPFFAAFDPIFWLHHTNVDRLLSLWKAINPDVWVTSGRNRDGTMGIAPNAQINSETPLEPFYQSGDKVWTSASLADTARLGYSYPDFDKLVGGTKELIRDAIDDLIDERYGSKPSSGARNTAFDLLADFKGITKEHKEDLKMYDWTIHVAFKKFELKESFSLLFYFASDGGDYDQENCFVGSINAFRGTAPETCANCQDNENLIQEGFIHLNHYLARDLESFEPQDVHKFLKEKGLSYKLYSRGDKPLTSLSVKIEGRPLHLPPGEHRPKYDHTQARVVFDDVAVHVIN
Description: Inhibition of mushroom tyrosinase after 25 mins by spectrophotometry

SMILES	EC50 [1]	IC50 [2]
COc1cc(/C=C/C(=O)NCCc2c[nH]c3ccc(O)cc23)cc(OC)c1O [N-SINAPOYL SEROTONIN]	30.7 µM	> 350 µM
O=C(/C=C/c1ccccc1)NCCc1c[nH]c2ccc(O)cc12 [N-CINNAMOYL SEROTONIN]	22.2 µM	40.4 µM
COc1ccc(/C=C/C(=O)O)cc1 [4-METHOXYCINNAMIC ACID]	> 250 µM	> 350 µM
NCCc1c[nH]c2ccc(O)cc12 [SEROTONIN]	> 250 µM	> 350 µM
COc1cc(/C=C/C(=O)O)ccc1O [FERULATE]	> 250 µM	> 350 µM
COc1ccc(/C=C/C(=O)NCCc2c[nH]c3ccc(O)cc23)cc1 [N-P-METHOXY CINNAMOYL SEROTONIN]	34.2 µM	23.8 µM
O=C(/C=C/c1ccc(O)cc1)NCCc1c[nH]c2ccc(O)cc12 [N-P-COUMAROYL SEROTONIN]	24.7 µM	8.8 µM
O=C(/C=C/c1ccc(O)c(O)c1)NCCc1c[nH]c2ccc(O)cc12 [N-CAFFEOYLSEROTONIN]	19.4 µM	278 µM
O=C(O)/C=C/c1ccc(O)cc1 [COUMARIC ACID]	> 250 µM	121 µM
O=C(O)CCC(=O)NCCc1c[nH]c2ccc(O)cc12 [BUFOBUTANOIC ACID]	38.3 µM	> 350 µM
COc1cc(/C=C/C(=O)O)cc(OC)c1O [SINAPINATE]	> 250 µM	> 351 µM
COc1ccc(/C=C/C(=O)NCCc2c[nH]c3ccc(O)cc23)cc1O [N-ISOFERULOYL SEROTONIN]	35.1 µM	5.4 µM
COc1cc(/C=C/C(=O)NCCc2c[nH]c3ccc(O)cc23)ccc1O [N-FERULOYL SEROTONIN]	22.8 µM	8 µM
COc1ccc(/C=C/C(=O)NCCc2c[nH]c3ccc(O)cc23)cc1OC [N-3,4-DIMETHOXY CINNAMOYL SEROTONIN]	28.1 µM	322 µM
